Values of other authors in US9889132B2, “Pharmaceutical compositions for the treatment of psoriasis” (Special Product's Line S.p.A., priority 2014, dated 2018).

In the case of `COc1cc(Nc2nc(C)cc(C)n2)cc(OC)c1OC` [4,6-dimethyl-N-(3,4,5-trimethoxyphenyl)pyrimidin-2-amine], the LD50 i.p. (mouse; i.p.) is listed as 780 mg/kg, the LD50 per os (mouse; per os) is listed as 4110 mg/kg and the antimitotic action (mammal cells) is listed as “considerable antimitotic action”.
